Reference: ChEMBL document CHEMBL5376003, “Structure-Activity Relationship of FL118 Platform Position 7 Versus Position 9-Derived Compounds and Their Mechanism of Action and Antitumor Activity” (J Med Chem, 2023)
Activity calls are given as the source filed them. The calls are words filed in the database; no cut-off is given here.

How the values were obtained:
HCT-116 [1] = assay: Induction of apoptosis in human HCT-116 cells assessed as downregulation of TK1 gene expression at 10 to 500 nM incubated for 6 to 48 hrs by RNA analysis; assay type: functional, cell-based; details: dose 10-500 nM, time 6-48 hrs
PDX14244 = assay: Antitumor activity against human PDX14244 cells xenografted in SCID mouse model assessed as reduction in tumor volume at 2 mg/kg,po administrated once per week for 3 weeks; assay type: functional, organism-based
HCT-116 [2] = assay: Induction of apoptosis in human HCT-116 cells assessed as downregulation of HK2 gene expression at 10 to 500 nM incubated for 6 to 48 hrs by RNA analysis; assay type: functional, cell-based; details: dose 10-500 nM, time 6-48 hrs
HCT-116 [3] = assay: Induction of apoptosis in human HCT-116 cells assessed as downregulation of GART gene expression at 10 to 500 nM incubated for 6 to 48 hrs by RNA analysis; assay type: functional, cell-based; details: dose 10-500 nM, time 6-48 hrs
HCT-116 [4] = assay: Induction of apoptosis in human HCT-116 cells assessed as downregulation of AK8 gene expression at 10 to 500 nM incubated for 6 to 48 hrs by RNA analysis; assay type: functional, cell-based; details: dose 10-500 nM, time 6-48 hrs
HCT-116 [5] = assay: Activation of innate immune response in human HCT-116 cells assessed as upregulation of IRF7 gene expression at 10 to 500 nM incubated for 6 to 48 hrs by RNA analysis; assay type: functional, cell-based; details: dose 10-500 nM, time 6-48 hrs
HCT-116 [6] = assay: Induction of apoptosis in human HCT-116 cells assessed as downregulation of NUP98 gene expression at 10 to 500 nM incubated for 6 to 48 hrs by RNA analysis; assay type: functional, cell-based; details: dose 10-500 nM, time 6-48 hrs
HCT-116 [7] = assay: Activation of innate immune response in human HCT-116 cells assessed as upregulation of CASP1 gene expression at 10 to 500 nM incubated for 6 to 48 hrs by RNA analysis; assay type: functional, cell-based; details: dose 10-500 nM, time 6-48 hrs
HepG2 = assay: Growth inhibition of human HepG2 cells incubated for 48 hrs by MTT reagent based ELISA reader analysis; assay type: functional, cell-based; details: HepG2, 48 h
HCT-116 [8] = assay: Induction of apoptosis in human HCT-116 cells assessed as modulation of TOP3B mRNA expression at 10 to 500 nM incubated for 6 to 48 hrs by RNA analysis; assay type: functional, cell-based; details: dose 10-500 nM, time 6-48 hrs
HCT-116 [9] = assay: Induction of apoptosis in human HCT-116 cells assessed as downregulation of SLC25A13 gene expression at 10 to 500 nM incubated for 6 to 48 hrs by RNA analysis; assay type: functional, cell-based; details: dose 10-500 nM, time 6-48 hrs
MCF7 = assay: Growth inhibition of human MCF7 cells incubated for 48 hrs by MTT reagent based ELISA reader analysis; assay type: functional, cell-based; details: MCF7, 48 h
HCT-116 [10] = assay: Induction of apoptosis in human HCT-116 cells assessed as downregulation of NUDT15 gene expression at 10 to 500 nM incubated for 6 to 48 hrs by RNA analysis; assay type: functional, cell-based; details: dose 10-500 nM, time 6-48 hrs
HCT-116 [11] = assay: Induction of apoptosis in human HCT-116 cells assessed as downregulation of AK2 gene expression at 10 to 500 nM incubated for 6 to 48 hrs by RNA analysis; assay type: functional, cell-based; details: dose 10-500 nM, time 6-48 hrs
HCT-116 [12] = assay: Induction of apoptosis in human HCT-116 cells assessed as downregulation of NUP133 gene expression at 10 to 500 nM incubated for 6 to 48 hrs by RNA analysis; assay type: functional, cell-based; details: dose 10-500 nM, time 6-48 hrs
HCT-116 [13] = assay: Induction of apoptosis in human HCT-116 cells assessed as downregulation of UMPS gene expression at 10 to 500 nM incubated for 6 to 48 hrs by RNA analysis; assay type: functional, cell-based; details: dose 10-500 nM, time 6-48 hrs
HCT-116 [14] = assay: Induction of apoptosis in human HCT-116 cells assessed as downregulation of ADSL gene expression at 10 to 500 nM incubated for 6 to 48 hrs by RNA analysis; assay type: functional, cell-based; details: dose 10-500 nM, time 6-48 hrs
PDX27454 = assay: Antitumor activity against human PDX27454 cells xenografted in SCID mouse model assessed as reduction in tumor volume at 8 mg/kg,po administrated once per week for 3 weeks; assay type: functional, organism-based
HCT-116 [15] = assay: Induction of apoptosis in human HCT-116 cells assessed as modulation of TOP2B mRNA expression at 10 to 500 nM incubated for 6 to 48 hrs by RNA analysis; assay type: functional, cell-based; details: dose 10-500 nM, time 6-48 hrs
HCT-116 [16] = assay: Growth inhibition of human HCT-116 cells incubated for 48 hrs by MTT reagent based ELISA reader analysis; assay type: functional, cell-based; details: HCT-116, 48 h
HCT-116 [17] = assay: Induction of apoptosis in human HCT-116 cells assessed as downregulation of NT5C gene expression at 10 to 500 nM incubated for 6 to 48 hrs by RNA analysis; assay type: functional, cell-based; details: dose 10-500 nM, time 6-48 hrs
HCT-116 [18] = assay: Induction of apoptosis in human HCT-116 cells assessed as increase in intracellular ROS level at 10 to 1000 nM incubated for 12 hrs by DCFH-DA staining based fluorescence microscopy; assay type: functional, cell-based; details: dose 10-1000 nM
HCT-116 [19] = assay: Induction of apoptosis in human HCT-116 cells assessed as downregulation of PUDP gene expression at 10 to 500 nM incubated for 6 to 48 hrs by RNA analysis; assay type: functional, cell-based; details: dose 10-500 nM, time 6-48 hrs
HCT-116 [20] = assay: Activation of innate immune response in human HCT-116 cells assessed as upregulation of IRF3 gene expression at 10 to 500 nM incubated for 6 to 48 hrs by RNA analysis; assay type: functional, cell-based; details: dose 10-500 nM, time 6-48 hrs
HCT-116 [21] = assay: Activation of innate immune response in human HCT-116 cells assessed as upregulation of IFIH1 gene expression at 10 to 500 nM incubated for 6 to 48 hrs by RNA analysis; assay type: functional, cell-based; details: dose 10-500 nM, time 6-48 hrs
HCT-116 [22] = assay: Induction of apoptosis in human HCT-116 cells assessed as downregulation of TYMS gene expression at 10 to 500 nM incubated for 6 to 48 hrs by RNA analysis; assay type: functional, cell-based; details: dose 10-500 nM, time 6-48 hrs
HCT-116 [23] = assay: Induction of apoptosis in human HCT-116 cells assessed as modulation of DDX55 mRNA expression at 10 to 500 nM incubated for 6 to 48 hrs by RNA analysis; assay type: functional, cell-based; details: dose 10-500 nM, time 6-48 hrs
HCT-116 [24] = assay: Induction of apoptosis in human HCT-116 cells assessed as upregulation of DDX5 mRNA expression at 500 nM incubated for 6 hrs by RNA analysis; assay type: functional, cell-based
HeLa = assay: Growth inhibition of human HeLa cells incubated for 48 hrs by MTT reagent based ELISA reader analysis; assay type: functional, cell-based
HCT-116 [25] = assay: Induction of apoptosis in human HCT-116 cells assessed as downregulation of NUP107 gene expression at 10 to 500 nM incubated for 6 to 48 hrs by RNA analysis; assay type: functional, cell-based; details: dose 10-500 nM, time 6-48 hrs

Compound	Activity (HCT-116 [1])	Activity (HCT-116 [2])	Activity (HCT-116 [3])	Activity (HCT-116 [4])	Activity (HCT-116 [5])	Activity (HCT-116 [6])	IC50 (HepG2)	Activity (HCT-116 [8])	Activity (HCT-116 [9])	IC50 (MCF7)	Activity (HCT-116 [11])	Activity (HCT-116 [12])	Activity (HCT-116 [13])	Activity (HCT-116 [14])	Activity (HCT-116 [15])	IC50 (HCT-116 [16])	Activity (HCT-116 [17])	Activity (HCT-116 [18])	Activity (HCT-116 [19])	Activity (HCT-116 [20])	also measured
CC[C@@]1(O)C(=O)OCc2c1cc1n(c2=O)Cc2c-1nc1cc3c(cc1c2-c1ccc(OC)cc1)OCO3	Active	Active	Active	Active	Active	Active	0.064 µM	Active	Active	0.0458 µM	Active	Active	Active	Active	Active	0.0177 µM	Active	Active	Active	Active	Activity (PDX14244): Active; Activity (HCT-116 [7]): Active; Activity (HCT-116 [10]): Active; Activity (PDX27454): Active; Activity (HCT-116 [21]): Active; Activity (HCT-116 [22]): Active; Activity (HCT-116 [23]): Active; Activity (HCT-116 [24]): Active; IC50 (HeLa): 0.0483 µM; Activity (HCT-116 [25]): Active
CC[C@@]1(O)C(=O)OCc2c1cc1n(c2=O)Cc2cc3cc4c(cc3nc2-1)OCO4	Active	Active	Active	Active	Active	Active	0.0395 µM	Active	Active	0.0322 µM	Active	Active	Active	Active	Active	0.0235 µM	Active	Active	Active	Active	Activity (HCT-116 [7]): Active; Activity (HCT-116 [10]): Active; Activity (HCT-116 [21]): Active; Activity (HCT-116 [22]): Active; Activity (HCT-116 [23]): Active; Activity (HCT-116 [24]): Active; IC50 (HeLa): 0.0324 µM; Activity (HCT-116 [25]): Active
CC[C@@]1(O)C(=O)OCc2c1cc1n(c2=O)Cc2c-1nc1cc3c(cc1c2-c1cc(OC)cc(OC)c1)OCO3	Active	Active	Active	Active	Active	Active	0.118 µM	Active	Active	< 0.0064 µM	Active	Active	Active	Active	Active	0.0994 µM	Active	Active	Active	Active	Activity (PDX14244): Active; Activity (PDX27454): Active; Activity (HCT-116 [21]): Active; Activity (HCT-116 [22]): Active; Activity (HCT-116 [23]): Active; Activity (HCT-116 [24]): Active; IC50 (HeLa): < 0.0064 µM; Activity (HCT-116 [25]): Active
CCc1ccc(-c2c3c(nc4cc5c(cc24)OCO5)-c2cc4c(c(=O)n2C3)COC(=O)[C@]4(O)CC)cc1	Active	Active	Active	Active	Active	Active	0.16 µM	Active	Active	0.0474 µM	Active	Active	Active	Active	Active	0.0556 µM	Active	Active	Active	Active	Activity (PDX14244): Active; Activity (HCT-116 [7]): Active; Activity (HCT-116 [10]): Active; Activity (PDX27454): Active; Activity (HCT-116 [21]): Active; Activity (HCT-116 [22]): Active; Activity (HCT-116 [23]): Active; Activity (HCT-116 [24]): Active; IC50 (HeLa): 0.0375 µM; Activity (HCT-116 [25]): Active
